Reference: PubChem BioAssay AID1054 (Sanford-Burnham Center for Chemical Genomics, 2009)
Activity calls are given as the source filed them. The rule behind the calls is not given here.

The molecules below were run against Dual specificity protein phosphatase 6 (Rattus norvegicus) (UniProt Q64346) (assay: redox-state modulators of MKP-3 activity, biochemical, rat enzyme, secondary assay (AID 1054)). Details: recombinant MKP-3 phosphatase activity.
Chain of Dual specificity protein phosphatase 6 (Rattus norvegicus) (Q64346 whole entry, looked up): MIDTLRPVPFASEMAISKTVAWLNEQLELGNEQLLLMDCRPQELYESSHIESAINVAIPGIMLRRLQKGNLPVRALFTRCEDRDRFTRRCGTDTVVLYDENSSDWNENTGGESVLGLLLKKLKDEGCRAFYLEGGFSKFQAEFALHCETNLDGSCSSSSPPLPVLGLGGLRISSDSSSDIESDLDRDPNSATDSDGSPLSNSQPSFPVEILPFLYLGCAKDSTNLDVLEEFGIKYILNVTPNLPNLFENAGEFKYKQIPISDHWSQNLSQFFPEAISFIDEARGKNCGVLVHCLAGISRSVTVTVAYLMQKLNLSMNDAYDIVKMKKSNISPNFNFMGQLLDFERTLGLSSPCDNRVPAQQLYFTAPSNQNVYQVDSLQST

| SMILES | IC50 |
| --- | --- |
| O=C(O)c1ccc(-c2ccc(/C=c3\sc4nc5ccccc5n4c3=O)o2)cc1 | 6.59 µM |
| CC(=O)Nc1ccc2c(c1)C1C=CCC1C(C(=O)O)N2 (centres undefined) | > 100 µM (inactive) |
| O=C(Oc1ccc(-c2ccccc2)cc1)c1cccc2c1NC(C(=O)O)C1CC=CC21 (centres undefined) | 3.5 µM |
| CCCn1c(=O)nc(NCc2ccc(C)cc2)[nH]c1=O | > 100 µM (inactive) |
| CCOC(=O)C1=C(C)N=c2sc(=Cc3ccc(OCC(=O)O)cc3)c(=O)n2C1c1ccc(Cl)cc1 (centres undefined) | 16.8 µM |
| CCC(CC)c1nnc(NC(=O)Cc2cccs2)s1 | > 100 µM (inactive) |
| COc1cc(C(=S)N2CCCC2)ccc1O | > 100 µM (inactive) |
| Cc1cc([N+](=O)[O-])cc2c1NC(C(=O)O)C1CC=CC21 (centres undefined) | > 100 µM (inactive) |
| COc1ccc(N2Cc3cccc(C(=O)O)c3C2=O)cc1 | > 100 µM (inactive) |
| O=C(Cc1cccs1)Nc1ccon1 | > 100 µM (inactive) |
| Cc1cc2ccccn2c1C(=O)C(=O)O | > 100 µM (inactive) |

The next lines start with the values.

| IC50 | SMILES |
| --- | --- |
| 4.16 µM | CCC(CC)NC(=S)c1ccc(O)c(OC)c1 |
| > 100 µM (inactive) | CCOC(=O)C1Nc2c(O)ccc(C)c2C2C=CCC12 (centres undefined) |
| > 100 µM (inactive) | O=c1nc(NCCc2ccccc2)[nH]c(=O)n1-c1ccccc1 |
| > 100 µM (inactive) | Cc1cc(C)c2c(c1)C1C=CCC1C(C(=O)O)N2 (centres undefined) |
| > 100 µM (inactive) | CC(C)CNc1nc(=O)n(-c2ccc(F)cc2)c(=O)[nH]1 |
| 7.53 µM | COc1cc(C(=S)NCc2ccc(F)c(C)c2)ccc1O |
| 5.96 µM | Cc1ccc2c(c1C)NC(C(=O)O)C1CC=CC21 (centres undefined) |
| > 100 µM (inactive) | O=c1/c(=C/c2cccc(Br)c2)sc2nc3cc(Br)cnc3n12 |
